The values that follow come from ChEMBL document CHEMBL1201862, “PubChem BioAssay data set” (2004).

SMILES strings stand for the structures. Calls of active or inactive are those of the source. For most assays here, no stated cut-off is given here; in the data, actives have a measured IC50 and inactives only a lower limit.

Experiment [1] deals with T1, Tyrosine-protein phosphatase non-receptor type 7 (Homo sapiens, UniProt P35236).
T1 sequence (P35236 whole entry): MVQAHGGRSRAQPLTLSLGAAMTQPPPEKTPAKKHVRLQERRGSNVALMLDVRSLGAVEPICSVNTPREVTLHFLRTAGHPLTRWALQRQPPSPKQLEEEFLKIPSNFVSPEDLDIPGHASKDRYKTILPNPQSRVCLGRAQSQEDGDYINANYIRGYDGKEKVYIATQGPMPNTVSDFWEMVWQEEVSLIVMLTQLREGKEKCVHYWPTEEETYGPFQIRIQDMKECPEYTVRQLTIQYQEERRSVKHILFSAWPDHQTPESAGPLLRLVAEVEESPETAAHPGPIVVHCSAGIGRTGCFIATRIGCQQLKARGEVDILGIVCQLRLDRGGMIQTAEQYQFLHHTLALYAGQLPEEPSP
Format: functional.

Experiment [2] has as its target T2, Tyrosine-protein phosphatase non-receptor type 22 (Homo sapiens, UniProt Q9Y2R2).
T2 sequence (Q9Y2R2 whole entry): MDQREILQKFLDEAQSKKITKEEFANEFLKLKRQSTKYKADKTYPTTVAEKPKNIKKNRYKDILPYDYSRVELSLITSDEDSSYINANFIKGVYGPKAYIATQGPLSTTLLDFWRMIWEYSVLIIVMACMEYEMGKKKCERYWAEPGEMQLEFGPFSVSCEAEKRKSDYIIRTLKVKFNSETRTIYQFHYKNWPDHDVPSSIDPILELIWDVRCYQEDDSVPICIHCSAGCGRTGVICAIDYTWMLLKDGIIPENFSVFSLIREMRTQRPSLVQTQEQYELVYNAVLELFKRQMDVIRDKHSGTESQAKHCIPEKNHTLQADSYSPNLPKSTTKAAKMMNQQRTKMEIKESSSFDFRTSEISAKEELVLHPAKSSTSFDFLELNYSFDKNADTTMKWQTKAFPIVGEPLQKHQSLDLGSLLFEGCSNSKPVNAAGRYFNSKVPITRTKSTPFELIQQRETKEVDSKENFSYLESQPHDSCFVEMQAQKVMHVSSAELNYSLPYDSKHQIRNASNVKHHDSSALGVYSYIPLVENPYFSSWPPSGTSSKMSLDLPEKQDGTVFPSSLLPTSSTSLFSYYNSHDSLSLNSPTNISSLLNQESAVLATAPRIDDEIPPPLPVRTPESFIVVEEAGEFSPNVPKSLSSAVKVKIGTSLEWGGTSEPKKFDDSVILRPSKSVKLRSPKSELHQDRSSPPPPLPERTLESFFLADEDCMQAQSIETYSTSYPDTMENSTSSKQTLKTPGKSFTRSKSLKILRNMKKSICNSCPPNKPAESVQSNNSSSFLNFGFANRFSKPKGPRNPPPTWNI
Format: functional.

The target of experiment [3] is T2, Tyrosine-protein phosphatase non-receptor type 22. The format is functional. This is another data set of the same source.
In experiment [4] the target is T3, Runt-related transcription factor 1/Core-binding factor subunit beta (Homo sapiens, UniProt Q01196+Q13951). The experiment can be described thus: disruptors of Runt domain/CBFb-SMMHC interaction – biochemical, FRET, Cerulean-Runt, Venus-CBFb-SMMHC, uHTS, […] (AID 1434). Format: protein assay.
T3 sequence (Q01196 whole entry, the tested form may be a part): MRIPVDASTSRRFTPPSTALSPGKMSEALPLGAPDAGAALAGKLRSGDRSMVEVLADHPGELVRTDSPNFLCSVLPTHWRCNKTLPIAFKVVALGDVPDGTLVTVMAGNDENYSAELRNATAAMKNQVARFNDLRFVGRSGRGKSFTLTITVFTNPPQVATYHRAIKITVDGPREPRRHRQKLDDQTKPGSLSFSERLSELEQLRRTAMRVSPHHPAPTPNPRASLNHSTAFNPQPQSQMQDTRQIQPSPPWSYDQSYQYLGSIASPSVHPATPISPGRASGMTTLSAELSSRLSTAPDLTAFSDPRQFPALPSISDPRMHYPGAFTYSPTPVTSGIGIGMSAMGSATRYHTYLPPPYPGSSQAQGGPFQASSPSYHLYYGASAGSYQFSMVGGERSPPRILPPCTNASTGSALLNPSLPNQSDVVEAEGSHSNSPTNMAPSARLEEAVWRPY
T3 sequence (Q13951 whole entry, the tested form may be a part): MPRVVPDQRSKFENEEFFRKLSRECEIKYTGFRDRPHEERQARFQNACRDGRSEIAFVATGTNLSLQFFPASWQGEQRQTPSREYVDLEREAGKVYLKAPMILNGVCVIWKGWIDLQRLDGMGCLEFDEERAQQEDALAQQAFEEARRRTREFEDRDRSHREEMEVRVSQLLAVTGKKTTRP
The target of experiment [5] is T3, Runt-related transcription factor 1/Core-binding factor subunit beta. The experiment can be described thus: Runt domain/CBFb-SMMHC interaction disruptors – biochemical, TR-FRET (AID 1438). Format: protein assay. (In TR-FRET formats the signal depends on donor and acceptor labels being close together.)
The target in experiment [6] is T4, E3 ubiquitin-protein ligase XIAP (Homo sapiens, UniProt P98170). The experiment can be described thus: Counter Screen using XIAP-Bir3 for Chemical Antagonists of Bir1/2 domains of IAP-family anti-apoptotic proteins. [Related pubchem assays (depositor defined):AID1018, AID1449, AID1514, AID1638, AID1749, AID1750, AID488957, AID488963]. On the technique in general: The purpose of a counterscreen is to sort out artefacts and off-target activity.
T4 sequence (P98170 whole entry): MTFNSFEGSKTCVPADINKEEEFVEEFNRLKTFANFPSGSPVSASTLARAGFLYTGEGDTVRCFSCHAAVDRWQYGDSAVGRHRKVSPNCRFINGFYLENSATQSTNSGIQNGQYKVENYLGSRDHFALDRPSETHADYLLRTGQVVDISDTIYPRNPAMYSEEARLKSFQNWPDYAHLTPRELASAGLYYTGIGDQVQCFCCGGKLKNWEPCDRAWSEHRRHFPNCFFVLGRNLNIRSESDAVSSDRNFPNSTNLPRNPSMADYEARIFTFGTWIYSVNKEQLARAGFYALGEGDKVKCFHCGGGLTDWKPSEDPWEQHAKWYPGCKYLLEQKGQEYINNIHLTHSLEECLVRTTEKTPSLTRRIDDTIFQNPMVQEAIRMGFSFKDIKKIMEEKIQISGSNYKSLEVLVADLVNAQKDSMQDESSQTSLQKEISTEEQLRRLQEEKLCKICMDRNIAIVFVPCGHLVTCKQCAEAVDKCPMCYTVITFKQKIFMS

Experiment [7] has as its target T4, E3 ubiquitin-protein ligase XIAP. Description: small molecules displacing peptide from XIAP – biochemical, IAP family, fluorescence polarization (AID 1018). Format: functional. (In fluorescence polarisation assays a small probe gives low polarisation when free and higher when bound to something large.)
In experiment [8] the target is T2, Tyrosine-protein phosphatase non-receptor type 22. The experiment can be described thus: SAR LYP1 Fluorescent Assay using pCAP substrate for In Vitro dose response studies - Set 2. [Related pubchem assays (depositor defined):AID1779, AID1784, AID2135, AID449727]. The format is functional.
The target in experiment [9] is Tyrosine-protein phosphatase non-receptor type 12 (Homo sapiens, UniProt Q05209). The experiment can be described thus: SAR Selectivity Analysis of small molecule inhibitors of PEST using pCAP in a fluorescence assay. [Related pubchem assays (depositor defined):AID1779, AID1784, AID2135]. Format: functional.
Chain of Tyrosine-protein phosphatase non-receptor type 12 (Q05209 whole entry): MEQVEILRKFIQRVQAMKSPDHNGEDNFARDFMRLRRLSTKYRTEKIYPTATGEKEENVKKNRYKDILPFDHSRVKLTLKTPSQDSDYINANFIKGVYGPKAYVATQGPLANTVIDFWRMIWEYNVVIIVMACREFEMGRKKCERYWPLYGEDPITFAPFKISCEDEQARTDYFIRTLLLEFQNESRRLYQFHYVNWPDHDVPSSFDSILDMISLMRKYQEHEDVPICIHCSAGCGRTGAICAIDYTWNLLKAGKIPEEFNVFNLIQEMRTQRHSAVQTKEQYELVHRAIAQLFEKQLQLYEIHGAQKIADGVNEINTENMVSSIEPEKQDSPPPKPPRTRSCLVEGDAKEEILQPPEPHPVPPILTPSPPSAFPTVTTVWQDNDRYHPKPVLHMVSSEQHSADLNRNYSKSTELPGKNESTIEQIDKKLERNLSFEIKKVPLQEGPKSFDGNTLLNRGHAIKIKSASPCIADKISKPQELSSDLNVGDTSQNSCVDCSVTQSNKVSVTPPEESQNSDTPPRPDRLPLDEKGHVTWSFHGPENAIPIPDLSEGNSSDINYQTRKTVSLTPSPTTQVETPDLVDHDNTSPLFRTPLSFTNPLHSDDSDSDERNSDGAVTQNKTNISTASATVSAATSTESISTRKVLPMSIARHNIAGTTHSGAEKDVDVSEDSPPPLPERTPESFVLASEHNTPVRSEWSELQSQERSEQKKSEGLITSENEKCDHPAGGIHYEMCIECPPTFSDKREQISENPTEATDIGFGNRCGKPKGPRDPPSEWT
In experiment [10] the target is T2, Tyrosine-protein phosphatase non-receptor type 22. The experiment can be described thus: SAR LYP1 Fluorescent Assay using OMFP substrate for In Vitro dose response studies - Set 3. [Related pubchem assays (depositor defined):AID1779, AID1784, AID2140, AID2686]. Format: functional.
The target in experiment [11] is T1, Tyrosine-protein phosphatase non-receptor type 7. Description: inhibition of hematopoietic tyrosine phosphatase HePTP – biochemical, set 2, SAR follow-up (AID 449736). The format is functional.
The target of experiment [12] is T2, Tyrosine-protein phosphatase non-receptor type 22. The experiment can be described thus: inhibition of lymphoid tyrosine phosphatase LYP – biochemical, pCAP fluorogenic substrate, fluorescence, set 3, SAR follow-up (AID 449727). The format is functional.
For experiment [13] the target is unchanged. The experiment can be described thus: SAR LYP1 Fluorescent Assay using OMFP substrate for In Vitro dose response studies - Set 2. [Related pubchem assays (depositor defined):AID1779, AID1784, AID2140, AID449726, AID488869]. Format: functional.
In a further experiment the target is Large T antigen (Simian virus 40, UniProt P03070). Format: functional, Betapolyomavirus macacae.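 Further: Confirmatory-stage PubChem screen for compounds that inhibit SV40 T antigen.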
Experiment [14] concerns Streptococcus sp. 'group A'. The experiment can be described thus: Streptococcus pyogenes SK(-)GAS viability under kanamycin – luminescence, BacTiterGlo, confirmation, counter-screen for streptokinase expression inhibitor project, dose response (AID 1900). The format is functional, organism-based.
In the next experiment the target is T5, Streptokinase A (Streptococcus pyogenes serotype M1, UniProt P10520).
T5 sequence (P10520 whole entry): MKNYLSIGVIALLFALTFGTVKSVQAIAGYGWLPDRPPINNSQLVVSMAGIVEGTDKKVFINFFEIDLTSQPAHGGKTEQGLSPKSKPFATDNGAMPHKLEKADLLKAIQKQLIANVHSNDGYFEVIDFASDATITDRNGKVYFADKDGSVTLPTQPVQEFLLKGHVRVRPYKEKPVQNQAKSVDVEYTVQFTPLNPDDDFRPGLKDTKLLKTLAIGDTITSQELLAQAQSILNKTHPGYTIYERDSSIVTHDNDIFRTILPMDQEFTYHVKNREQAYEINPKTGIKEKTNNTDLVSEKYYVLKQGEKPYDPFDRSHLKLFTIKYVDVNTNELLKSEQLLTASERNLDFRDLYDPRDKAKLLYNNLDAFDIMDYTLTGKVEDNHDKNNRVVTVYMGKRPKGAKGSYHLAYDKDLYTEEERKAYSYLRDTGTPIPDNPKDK
The experiment can be described thus: viability-normalized secreted streptokinase activity reduction – plasminogen activation absorbance, OD405, dose response (AID 1914).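 Further: secreted streptokinase activity via plasminogen activation per viability signal from cell pellet.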 Format: functional, Streptococcus pyogenes M1 GAS.

The subject of another experiment is Streptococcus. The experiment can be described thus: GAS UMAA2166 growth inhibition – luminescence, BacTiterGlo, counter-screen for streptokinase expression inhibitor project, dose response (AID 1915).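 Further: potency for reduction of bacterial viability or growth.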 Format: functional, organism-based.
Experiment [15] addresses T6, Carboxy-terminal domain RNA polymerase II polypeptide A small phosphatase 1 (Homo sapiens, UniProt Q9GZU7).
T6 sequence (Q9GZU7 whole entry): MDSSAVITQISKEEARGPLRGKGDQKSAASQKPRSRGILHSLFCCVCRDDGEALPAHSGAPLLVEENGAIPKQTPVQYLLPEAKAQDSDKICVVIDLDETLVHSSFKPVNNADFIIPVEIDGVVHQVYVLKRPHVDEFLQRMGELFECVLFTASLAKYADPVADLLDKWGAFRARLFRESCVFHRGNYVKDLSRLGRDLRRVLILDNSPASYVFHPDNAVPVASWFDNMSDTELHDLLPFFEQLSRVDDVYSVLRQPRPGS
Description: CTDSP1 inhibitors, concentration-response, biochemical, absorbance readout, ultra-high-throughput screen actives (AID 540297). The format is functional.

Another experiment deals with Tumor necrosis factor (Homo sapiens, UniProt P01375). The experiment can be described thus: analog potency on TNFa NF-kB signaling – cell-based, revised, SAR follow-up (AID 2337). The format is functional.
Chain of Tumor necrosis factor (P01375 whole entry, the tested form may be a part): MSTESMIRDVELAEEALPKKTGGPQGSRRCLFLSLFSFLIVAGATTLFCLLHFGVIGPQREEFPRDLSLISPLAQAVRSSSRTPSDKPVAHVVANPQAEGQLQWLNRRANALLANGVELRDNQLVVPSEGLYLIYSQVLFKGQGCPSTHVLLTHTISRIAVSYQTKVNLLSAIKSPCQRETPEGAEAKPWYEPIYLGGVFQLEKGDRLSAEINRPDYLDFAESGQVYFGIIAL
For experiment [16], the target named is Nucleotide-binding oligomerization domain-containing protein 1 (Homo sapiens, UniProt Q9Y239). The experiment can be described thus: blockers of NOD1 pathway activity – revised, SAR follow-up (AID 2333). The format is functional.
Chain of Nucleotide-binding oligomerization domain-containing protein 1 (Q9Y239 whole entry, the tested form may be a part): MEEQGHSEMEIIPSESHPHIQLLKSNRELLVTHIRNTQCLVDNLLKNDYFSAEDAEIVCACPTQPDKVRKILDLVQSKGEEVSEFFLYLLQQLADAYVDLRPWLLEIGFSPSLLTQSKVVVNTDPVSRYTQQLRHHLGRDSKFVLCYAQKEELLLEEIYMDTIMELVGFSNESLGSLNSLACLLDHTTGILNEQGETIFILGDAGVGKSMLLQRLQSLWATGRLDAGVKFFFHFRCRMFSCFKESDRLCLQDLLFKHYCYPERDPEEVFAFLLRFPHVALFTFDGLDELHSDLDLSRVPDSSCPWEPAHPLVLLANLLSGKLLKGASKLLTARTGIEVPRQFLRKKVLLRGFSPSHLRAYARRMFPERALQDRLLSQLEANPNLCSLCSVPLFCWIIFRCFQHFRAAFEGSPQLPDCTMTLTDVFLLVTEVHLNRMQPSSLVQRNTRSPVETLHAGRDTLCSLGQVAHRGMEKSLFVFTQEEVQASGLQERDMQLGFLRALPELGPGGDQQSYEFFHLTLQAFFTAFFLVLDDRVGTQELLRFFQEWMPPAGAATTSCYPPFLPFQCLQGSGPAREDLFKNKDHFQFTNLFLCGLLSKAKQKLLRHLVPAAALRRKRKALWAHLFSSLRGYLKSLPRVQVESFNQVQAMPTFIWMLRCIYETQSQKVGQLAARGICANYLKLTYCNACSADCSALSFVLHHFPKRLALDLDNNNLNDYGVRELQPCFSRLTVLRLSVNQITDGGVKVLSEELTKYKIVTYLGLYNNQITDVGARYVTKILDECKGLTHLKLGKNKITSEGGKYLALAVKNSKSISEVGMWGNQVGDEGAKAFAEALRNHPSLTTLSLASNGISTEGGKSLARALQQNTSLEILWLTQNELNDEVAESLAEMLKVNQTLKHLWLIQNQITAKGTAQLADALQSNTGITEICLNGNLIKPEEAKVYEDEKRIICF
The target in experiment [17] is Nucleotide-binding oligomerization domain-containing protein 2 (Homo sapiens, UniProt Q9HC29). Description: PubChem AID 2334. The format is functional.
Chain of Nucleotide-binding oligomerization domain-containing protein 2 (Q9HC29 whole entry, the tested form may be a part): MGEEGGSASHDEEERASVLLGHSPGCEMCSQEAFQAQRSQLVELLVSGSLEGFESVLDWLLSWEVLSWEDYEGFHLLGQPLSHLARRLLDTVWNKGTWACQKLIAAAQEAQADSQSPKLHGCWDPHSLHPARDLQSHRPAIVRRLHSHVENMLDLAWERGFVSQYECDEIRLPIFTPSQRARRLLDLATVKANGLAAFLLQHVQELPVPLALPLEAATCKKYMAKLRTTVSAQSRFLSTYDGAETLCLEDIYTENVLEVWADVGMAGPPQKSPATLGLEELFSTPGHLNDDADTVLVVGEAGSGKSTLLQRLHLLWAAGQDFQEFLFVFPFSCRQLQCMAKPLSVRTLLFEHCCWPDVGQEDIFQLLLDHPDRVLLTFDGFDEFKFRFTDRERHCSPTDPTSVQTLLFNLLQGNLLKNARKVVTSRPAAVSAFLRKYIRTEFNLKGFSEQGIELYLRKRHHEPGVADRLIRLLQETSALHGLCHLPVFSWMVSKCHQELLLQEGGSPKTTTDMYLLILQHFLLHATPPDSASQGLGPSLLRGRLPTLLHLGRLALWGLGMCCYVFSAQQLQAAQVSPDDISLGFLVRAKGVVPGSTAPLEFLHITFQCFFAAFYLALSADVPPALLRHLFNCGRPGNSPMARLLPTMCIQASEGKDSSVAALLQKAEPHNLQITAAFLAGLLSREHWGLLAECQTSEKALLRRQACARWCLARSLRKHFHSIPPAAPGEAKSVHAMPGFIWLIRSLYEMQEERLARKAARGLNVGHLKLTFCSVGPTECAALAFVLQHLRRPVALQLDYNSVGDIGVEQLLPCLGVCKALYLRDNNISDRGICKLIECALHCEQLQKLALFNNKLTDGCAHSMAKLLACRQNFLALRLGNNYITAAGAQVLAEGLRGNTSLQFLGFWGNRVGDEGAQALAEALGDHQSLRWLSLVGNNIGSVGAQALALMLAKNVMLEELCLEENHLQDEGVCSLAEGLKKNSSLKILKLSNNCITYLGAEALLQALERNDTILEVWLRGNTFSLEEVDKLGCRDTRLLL
The test system of a further experiment is HEK293. Description: cells. Conditions: Homo sapiens.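 Further: cells exposed to compound for 14 hours overnight before viability readout.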
Experiment [18] concerns the target T7, Dual specificity protein phosphatase 3 (Homo sapiens, UniProt P51452). The experiment can be described thus: VHR1 phosphatase inhibitors, primary screen, biochemical, absorbance, uHTS (AID 1654).
Experiment [19] addresses T7, Dual specificity protein phosphatase 3. Description: VHR1 phosphatase inhibitors, biochemical (AID 1878).
In experiment [20] the target is T8, Dual specificity protein phosphatase 6 (Rattus norvegicus, UniProt Q64346).
T8 sequence (Q64346 whole entry): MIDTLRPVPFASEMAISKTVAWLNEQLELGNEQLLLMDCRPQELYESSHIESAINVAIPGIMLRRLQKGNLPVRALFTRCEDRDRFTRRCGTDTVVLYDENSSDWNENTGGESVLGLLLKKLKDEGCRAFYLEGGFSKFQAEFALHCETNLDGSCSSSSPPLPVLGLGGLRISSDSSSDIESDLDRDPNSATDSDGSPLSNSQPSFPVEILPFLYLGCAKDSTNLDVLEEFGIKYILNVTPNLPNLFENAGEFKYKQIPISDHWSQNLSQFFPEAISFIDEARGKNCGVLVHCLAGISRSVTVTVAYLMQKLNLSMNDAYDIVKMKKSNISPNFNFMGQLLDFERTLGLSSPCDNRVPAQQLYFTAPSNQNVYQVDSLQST
The experiment can be described thus: inhibition of rat DUSP6 enzyme activity – biochemical, in vitro, primary screen (AID 425).

For the next experiment, the target named is T9, Cysteine protease ATG4B (Homo sapiens, UniProt Q9Y4P1).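 Further: Fluorescence-based dose-response confirmation assay measuring inhibition of ATG4B activity.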
T9 sequence (Q9Y4P1 whole entry): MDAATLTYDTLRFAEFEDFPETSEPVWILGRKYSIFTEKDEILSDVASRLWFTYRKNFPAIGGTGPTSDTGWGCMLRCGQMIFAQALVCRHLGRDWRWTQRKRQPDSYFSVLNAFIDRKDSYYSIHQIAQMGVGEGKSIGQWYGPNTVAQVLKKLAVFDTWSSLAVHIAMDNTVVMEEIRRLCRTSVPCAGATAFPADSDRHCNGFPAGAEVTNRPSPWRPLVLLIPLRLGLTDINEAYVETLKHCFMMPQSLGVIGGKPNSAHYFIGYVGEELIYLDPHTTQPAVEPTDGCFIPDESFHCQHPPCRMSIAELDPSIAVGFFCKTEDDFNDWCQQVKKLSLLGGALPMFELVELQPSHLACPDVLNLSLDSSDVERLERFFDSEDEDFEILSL
The format is functional.

The target in another experiment is Phospholipase A2 (Homo sapiens, UniProt P04054). Format: functional.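 Further: confirmatory dose-response counterscreen on phospholipase A2, testing hits that came from an ultra-high-throughput screen for ATG4B inhibitors.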
Chain of Phospholipase A2 (P04054 whole entry): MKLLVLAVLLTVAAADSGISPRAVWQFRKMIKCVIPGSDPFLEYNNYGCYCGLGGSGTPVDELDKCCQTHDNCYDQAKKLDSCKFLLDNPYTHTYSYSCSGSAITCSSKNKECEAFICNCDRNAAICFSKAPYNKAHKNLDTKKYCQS

T7 sequence (P51452 whole entry): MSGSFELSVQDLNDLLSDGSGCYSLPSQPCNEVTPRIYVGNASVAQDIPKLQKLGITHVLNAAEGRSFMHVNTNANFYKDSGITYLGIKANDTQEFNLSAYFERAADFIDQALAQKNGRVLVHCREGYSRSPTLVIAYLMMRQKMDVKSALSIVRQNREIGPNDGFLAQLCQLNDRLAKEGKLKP

For orientation: IC50 means the concentration that inhibits the measured activity by half. Regarding `O=c1c(-c2ccccc2)c(O)c2c(n1-c1ccccc1)CCCC2`, the IC50 in [1], in experiment [2] and in experiment [3] was > 79.4 µM (inactive) throughout.

On to `Cc1cccn2c(=O)c(/C=C(\C#N)C(=O)NCc3ccco3)c(N3CCCC(C)C3)nc12` (stereo not given), for which the IC50 in experiment [4] and in experiment [5] was > 100 µM (inactive) in each case.

`COC(=O)c1ccc(C(=O)NC(=S)Nc2nc3c(s2)CCCC3)cc1`: the values for the IC50 in experiment [6] and in experiment [7] were > 100 µM (inactive) and > 100 µM (not active), respectively.

As for `O=C(O)COc1ccc2c(c1)O/C(=C\c1cccs1)C2=O`, the IC50 in [8] is 81.2 µM (active); in experiment [9], > 100 µM (inactive); in experiment [10], > 100 µM (inactive); in experiment [11] it was > 100 µM (inactive); in experiment [12] it was > 100 µM (inactive); in [13], > 100 µM (inactive).

Regarding `CCC(=O)Nc1c(S(=O)(=O)c2ccccc2)c2nc3ccccc3nc2n1Cc1ccccc1`, the results for the IC50 in [4] and in [5] were 4.74 µM (active) and > 100 µM (inactive), respectively.

On to `C=CCc1cccc2cc(C(=O)Nc3ccc(S(=O)(=O)Nc4nnc(CC)s4)cc3)c(=O)oc12`, for which the IC50 in experiment [1] was 6.18 µM (active); on Large T antigen, 83.2 µM (active); in experiment [2] it was 8.58 µM (active); in experiment [3], 9.43 µM (active).

For orientation: EC50 means the concentration at which the effect is half-maximal. For the compound `Clc1cc(CSc2ccccc2)nc(-c2ccccc2)n1`, the EC50 in experiment [14] is > 150 µM (not active); on Streptokinase A, 33.8 µM (active); in the experiment on Streptococcus it was > 150 µM (not active). For the same compound, the results for the IC50 in experiment [6], in [7] and in experiment [15] were > 100 µM (inactive), > 100 µM (not active) and 14.1 µM (active), respectively.

On to `O=C(Nc1nc2ccccc2n1Cc1ccccc1Cl)c1ccc(Cl)cc1`, for which the IC50 (at Tumor necrosis factor; in [16]; in [17]; in the experiment on HEK293) was > 20 µM (inactive) in each case.

On to `O=C(N/N=C/c1ccccc1Cl)c1nc(O)c2cc([N+](=O)[O-])ccc2n1`, for which the IC50 is 12.8 µM (active) in experiment [18]; > 158 µM (inactive) in [19]; > 158 µM (not active) in [20]; 10.1 µM (active) on Cysteine protease ATG4B; 30.2 µM (inactive) at Phospholipase A2; 6.91 µM (active) in experiment [15].
